Results from patent US20240174618A1, “SUBSTITUTED (2-HETEROARYLOXYPHENYL)SULFONATES, SALTS THEREOF AND THEIR USE AS HERBICIDAL AGENTS” (Bayer Aktiengesellschaft, priority 2021, published 2024).

Key:
Type in all cases: in vivo
[1] = system: Alopecurus myosuroides (ALOMY); test: B. Herbicidal post-emergence efficacy, ALOMY; details: rated visually after about 3 weeks
Experimental: Seeds of mono- and dicotyledonous weed plants were placed in plastic pots in sandy loam soil (doubly sown with in each case one species of mono- or dicotyledonous weed plants per pot), covered with soil and cultivated in a greenhouse under controlled growth conditions. 2 to 3 weeks after sowing, the test plants were treated at the one-leaf stage. The compounds of the invention, formulated in the form of wettable powders (WP) or as emulsion concentrates (EC), were applied onto the green parts of the plants as aqueous suspension or emulsion with addition of 0.5% additive at a water application rate of 600 liters per hectare (converted). After the test plants had been kept in the greenhouse under optimum growth conditions for about 3 weeks, the activity of the preparations was rated visually in comparison to untreated controls.
For example, • 100% efficacy=plants have died, • 0% efficacy=like untreated control plants
Tables B1a to B12c below show the effects of selected inventive compounds of the general formula (I) according to table 1 on various harmful plants at an application rate corresponding to 1280 g/ha or less, which were obtained by the experimental procedure mentioned above.

[2] = system: Stellaria media (STEME); test: B. Herbicidal post-emergence efficacy, STEME
Summary of the method: (§1)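 Post-emergence greenhouse test: one-leaf-stage plants, compound (WP/EC, +0.5% additive, 600 L/ha water, ≤1280 g/ha) applied to green parts; % efficacy scored visually vs untreated after ~3 wk; 100% = plants died.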

[3] = system: Matricaria inodora (MATIN); test: C. Herbicidal pre-emergence efficacy, MATIN; details: scored after about 3 weeks
Description: (§2) Seeds of monocotyledonous and dicotyledonous weed plants and crop plants were placed in plastic or organic planting pots and covered with soil. The compounds of the invention, formulated in the form of wettable powders (WP) or as emulsion concentrates (EC), were then applied to the surface of the covering soil as aqueous suspension or emulsion with addition of 0.5% additive at a water application rate equivalent to 600 l/ha (converted). After the treatment, the pots were placed in a greenhouse and kept under good growth conditions for the test plants. After about 3 weeks, the efficacy of the preparations was scored visually in comparison with untreated controls as percentages. For example, • 100% efficacy=plants have died, • 0% efficacy=like untreated control plants.
(§3) Tables C1a to C14b below show the effects of selected compounds of the general formula (I) according to table 1 on various harmful plants at an application rate corresponding to 320 g/ha or less, which were obtained by the experimental procedure mentioned above.

[4] = system: Alopecurus myosuroides (ALOMY); test: E. Herbicidal post-emergence efficacy, ALOMY
Experimental: (§4) Seeds of monocotyledonous and dicotyledonous weeds and crop plants were placed in sandy loam in plastic or organic planting pots, covered with soil and cultivated in a greenhouse under controlled growth conditions. 2 to 3 weeks after sowing, the test plants were treated at the one-leaf stage. The compounds of the invention, formulated in the form of wettable powders (WP) or as emulsion concentrates (EC), were then sprayed onto the green parts of the plants as aqueous suspension or emulsion with addition of 0.5% additive at a water application rate of 600 l/ha (converted). After the test plants had been kept in the greenhouse under optimum growth conditions for about 3 weeks, the activity of the preparations was rated visually in comparison to untreated controls.
(§5) For example, • 100% efficacy=plants have died, • 0% action=like untreated control plants.
(§6) Tables E1a to E12b below show the effects of selected compounds of the general formula (I) according to table 1 on various harmful plants at an application rate corresponding to 320 g/ha or less, which were obtained by the experimental procedure mentioned above.

[5] = system: Pharbitis purpurea (PHBPU); test: C. Herbicidal pre-emergence efficacy, PHBPU; details: scored after about 3 weeks
Description: as §2, §3

[6] = system: Digitaria sanguinalis (DIGSA); test: E. Herbicidal post-emergence efficacy, DIGSA
Experimental: as §4, §5, §6

[7] = system: Zea mays (ZEAMX); test: D. Pre-emergence effect on useful plants, ZEAMX; details: useful plant
Description: as §2
Tables D1a to D5b below show the effects of selected compounds of the general formula (I) according to table 1 on various useful plants at an application rate corresponding to 320 g/ha or less, which were obtained by the experimental procedure mentioned above.

[8] = system: Digitaria sanguinalis (DIGSA); test: B. Herbicidal post-emergence efficacy, DIGSA; details: rated visually after about 3 weeks
Summary of the method: as §1

Row | Pre-emergence efficacy against ZEAMX in % ([7]; application rate 80 g/ha) [%] | Structure (SMILES) | Post-emergence efficacy against STEME ([2]; 320 g/ha) [%] | Post-emergence efficacy against STEME ([2]; 1280 g/ha) [%] | Pre-emergence efficacy against MATIN ([3]; 320 g/ha) [%] | Post-emergence efficacy against ALOMY in % ([4]; application rate 320 g/ha) [%] | Pre-emergence efficacy against PHBPU ([5]; 320 g/ha) [%] | Post-emergence efficacy against DIGSA in % ([6]; application rate 320 g/ha) [%] | Post-emergence efficacy against DIGSA in % ([8]; 1280 g/ha) [%] | Post-emergence efficacy against STEME ([2]; 80 g/ha) [%] | further results
1 |  | CCCS(=O)(=O)Oc1ccccc1Oc1ncc(Cl)cn1 [Example I-3] | 90 | 100 | 90 | 80 | 80 |  |  |  | Post-emergence efficacy against ALOMY in % ([1]; 1280 g/ha): 90%
2 |  | CCCCS(=O)(=O)Oc1ccccc1Oc1ncc(Cl)cn1 [Example I-6] | 90 | 90 |  | 90 | 80 | 100 |  |  | Post-emergence efficacy against DIGSA in % ([6]; application rate 80 g/ha): 80%
3 |  | CC(C)CS(=O)(=O)Oc1ccccc1Oc1ncc(Cl)cn1 [Example I-7, [2-(5-Chloropyrimidin-2-yl)oxyphenyl] 2-methylpropane-1-sulfonate] | 90 | 90 |  | 90 |  | 100 |  |  | Post-emergence efficacy against DIGSA in % ([6]; application rate 80 g/ha): 90%
4 | 0 | O=S(=O)(CCl)Oc1ccccc1Oc1ncc(Cl)cn1 [Example I-9] |  | 90 | 80 |  |  | 80 |  |  | Pre-emergence efficacy against ZEAMX in % ([7]; application rate 320 g/ha): 20%
5 |  | CCS(=O)(=O)Oc1ccccc1Oc1ncc(Cl)cn1 [Example I-16] | 100 | 100 |  |  |  |  | 90 | 90 | Post-emergence efficacy against ALOMY in % ([1]; 1280 g/ha): 90%
6 |  | Cc1cccc(Oc2ncc(Cl)cn2)c1OS(=O)(=O)CCCC(F)(F)F [Example I-28, 2-[(5-Chloropyrimidin-2-yl)oxy]-6-methylphenyl 4,4,4-trifluorobutane-1-sulfonate] | 100 | 100 |  |  |  |  | 90 | 90 | 
7 |  | O=S(=O)(CCCC(F)(F)F)Oc1c(Br)cccc1Oc1ncc(Cl)cn1 [Example I-30] | 100 | 100 |  |  |  |  | 90 | 100 | 
8 |  | O=S(=O)(CCC(F)(F)F)Oc1c(Br)cccc1Oc1ncc(Cl)cn1 [Example I-31] | 100 | 100 |  |  |  |  | 90 | 100 | 
9 |  | O=S(=O)(CCCC(F)(F)F)Oc1c(Cl)cccc1Oc1ncc(Br)cn1 [Example I-34] | 100 | 100 |  |  |  | 90 | 100 | 100 | 
10 | 0 | C=CCS(=O)(=O)Oc1ccccc1Oc1ncc(Cl)cn1 [Example I-36] |  | 100 |  |  |  |  |  |  | 
11 |  | O=S(=O)(CCC(F)(F)F)Oc1c(F)cccc1Oc1ncc(Br)cn1 [Example I-40] |  |  | 80 | 90 | 100 | 100 | 90 |  | Post-emergence efficacy against DIGSA in % ([8]; 320 g/ha): 90%; Post-emergence efficacy against DIGSA in % ([6]; application rate 80 g/ha): 80%
12 |  | O=S(=O)(CCCC(F)(F)F)Oc1c(F)cccc1Oc1ncc(F)cn1 [Example I-42] | 100 | 100 | 100 | 100 | 100 | 90 |  | 100 | Post-emergence efficacy against ALOMY in % ([1]; 320 g/ha): 100%; Post-emergence efficacy against ALOMY in % ([1]; 1280 g/ha): 100%; Pre-emergence efficacy against MATIN ([3]; 80 g/ha): 90%; Post-emergence efficacy against ALOMY in % ([4]; application rate 80 g/ha): 90%; Post-emergence efficacy against DIGSA in % ([6]; application rate 80 g/ha): 90%; Pre-emergence efficacy against PHBPU ([5]; 80 g/ha): 100%
13 | 0 | O=S(=O)(CCC(F)(F)F)Oc1c(Br)cccc1Oc1ncc(F)cn1 [Example I-43] | 100 | 100 | 80 |  |  |  |  |  | 
14 | 0 | Cc1cccc(Oc2ncc(F)cn2)c1OS(=O)(=O)CCC(F)(F)F [Example I-45] | 100 | 100 |  |  |  |  |  | 100 | Post-emergence efficacy against ALOMY in % ([1]; 1280 g/ha): 90%; Pre-emergence efficacy against ZEAMX in % ([7]; application rate 320 g/ha): 20%
15 |  | O=S(=O)(CCC(F)(F)F)Oc1c(F)cccc1Oc1ncc(F)cn1 [Example I-47] | 100 | 100 | 100 | 100 | 100 |  |  | 100 | Post-emergence efficacy against ALOMY in % ([1]; 320 g/ha): 90%; Post-emergence efficacy against ALOMY in % ([1]; 1280 g/ha): 100%; Pre-emergence efficacy against MATIN ([3]; 80 g/ha): 90%; Pre-emergence efficacy against PHBPU ([5]; 80 g/ha): 90%
16 | 0 | C=CCCS(=O)(=O)Oc1c(F)cccc1Oc1ncc(Cl)cn1 [Example I-50] |  |  |  |  |  |  | 90 |  | 
17 | 10 | O=S(=O)(CCC1CC1)Oc1c(F)cccc1Oc1ncc(Cl)cn1 [Example I-55] | 90 | 90 |  |  |  | 90 | 90 | 90 | Post-emergence efficacy against ALOMY in % ([1]; 1280 g/ha): 90%; Post-emergence efficacy against DIGSA in % ([8]; 320 g/ha): 90%
18 |  | O=S(=O)(CCCC(F)F)Oc1c(F)cccc1Oc1ncc(Cl)cn1 [Example I-56] | 90 | 90 |  | 80 | 100 | 100 | 90 | 90 | Post-emergence efficacy against DIGSA in % ([8]; 320 g/ha): 90%; Pre-emergence efficacy against PHBPU ([5]; 80 g/ha): 100%
19 | 10 | O=S(=O)(CCCC(F)(F)C(F)(F)F)Oc1c(F)cccc1Oc1ncc(Cl)cn1 [Example I-68] | 100 | 100 | 100 |  |  | 90 | 100 | 90 | Post-emergence efficacy against DIGSA in % ([8]; 320 g/ha): 90%; Pre-emergence efficacy against MATIN ([3]; 80 g/ha): 90%
20 |  | O=S(=O)(CCC(F)=C(F)F)Oc1c(F)cccc1Oc1ncc(Cl)cn1 [Example I-70] |  |  |  |  |  | 90 |  |  | 

Row | Structure (SMILES) | Pre-emergence efficacy against ZEAMX in % ([7]; application rate 80 g/ha) [%] | Post-emergence efficacy against STEME ([2]; 320 g/ha) [%] | Post-emergence efficacy against STEME ([2]; 1280 g/ha) [%] | Pre-emergence efficacy against MATIN ([3]; 320 g/ha) [%] | Post-emergence efficacy against ALOMY in % ([4]; application rate 320 g/ha) [%] | Pre-emergence efficacy against PHBPU ([5]; 320 g/ha) [%] | Post-emergence efficacy against DIGSA in % ([6]; application rate 320 g/ha) [%] | Post-emergence efficacy against DIGSA in % ([8]; 1280 g/ha) [%] | Post-emergence efficacy against STEME ([2]; 80 g/ha) [%] | further results
21 | O=S(=O)(CCCCl)Oc1cccc(F)c1Oc1ncc(Cl)cn1 [Example I-13] | 10 | 90 | 100 |  |  |  |  | 90 |  | Pre-emergence efficacy against ZEAMX in % ([7]; application rate 320 g/ha): 20%
22 | O=S(=O)(CCCC(F)(F)F)Oc1c(Cl)cccc1Oc1ncc(Cl)cn1 [Example I-39] | 0 | 90 | 90 | 80 |  | 90 | 100 | 90 | 90 | Post-emergence efficacy against DIGSA in % ([6]; application rate 80 g/ha): 90%
23 | Cc1cccc(Oc2ncc(F)cn2)c1OS(=O)(=O)CCCC(F)(F)F [Example I-46] | 0 | 100 | 100 |  |  |  |  |  | 90 | Post-emergence efficacy against ALOMY in % ([1]; 1280 g/ha): 90%
24 | N#Cc1cccc(Oc2ncc(Cl)cn2)c1OS(=O)(=O)CCCC(F)(F)F [Example I-81] | 0 |  |  |  | 90 | 100 | 90 |  |  | Post-emergence efficacy against DIGSA in % ([6]; application rate 80 g/ha): 80%
